Earlier results as cited in patent publication US20080171740A1, “Chemical Compounds” (SMITHKLINE BEECHAM CORPORATION, priority 2004, published 2008).

Test system: T-tropic HIV
Settings: patients that are dual tropic or where only the T-tropic form is present; cited from earlier work

## c1cc(CN2CCCNCCNCCCNCC2)ccc1CN1CCCNCCNCCCNCC1 [AMD-3100]
  T-tropic HIV viral load: significantly reduce T-tropic HIV viral load
